Assays:
[1] = Comparison of ^23Na shiftability and broadening potential of DOTP agents; format: physicochemical
[2] = tested on: rat brain bearing U251, RG2 or U87 tumors; experiment: In vivo ^23Na-MRSI peak separation in tumor-bearing rat brain
Text: Before TmDOTP^5− delivery, there was a single ^23Na peak at 0 ppm corresponding to Na^+T, observed ubiquitously both inside and outside the tumor. Upon TmDOTP^5− delivery, compartmental ^23Na peak separation was achieved. Within the tumor, the compromised BBB permitted greater TmDOTP^5− extravasation and accumulation in the interstitial space, explicitly yielding three separate ^23Na peaks emerging from the original single ^23Na resonance. […] In the tumor, the most-shifted peak was Na^+b because the blood compartment had the largest TmDOTP^5−, which was corroborated by removing blood samples from the animal and observing the same chemical shift in vitro (FIG. 2D). In the tumor, the intermediate peak in the middle corresponded to the interstitial Na^+e resonance (FIG. 2B). The splitting was also evident outside of the tumor (i.e., in healthy tissue) where TmDOTP^5− extravasated to a much lesser extent compared to tumor tissue (FIG. 2C). The Na^+b peak was still most-shifted, whereas the Na^+i and Na^+e peaks were less discernible. When there was significant overlap between adjacent peaks, instead of peak integrals the peak amplitudes were used to discriminate signals. The shifted bulk Na^+e peak in healthy tissue confirmed that whatever degree of TmDOTP^5− extravasation occurred was sufficient to affect the interstitial ^23Na signals, albeit less pronounced than tumoral Na^+e. The unshifted Na^+i resonance was still at 0 ppm, but partially eclipsed by the bulk Na^+e peak. These same patterns inside/outside the tumor were observed throughout the brain.
The in vivo protocol was approved by the Institutional Animal Care & Use Committee of Yale University, and all procedures were performed in accordance with these enforced guidelines and regulations, and in compliance with the ARRIVE guidelines. Rats (athymic/nude and Fischer 344) were purchased through Yale University vendors. U251, U87 and RG2 GBM cell lines were purchased from American Type Culture Collections (Manassas, VA, USA). The U251, U87, and RG2 cells were cultured and grown in a 5% CO2 incubator at 37° C. in either low-glucose (U251 cells) or high-glucose (U87 and RG2 cells) Dulbecco's Modified Eagle's Medium (DMEM) (Thermo Fisher Scientific, Waltham, MA, USA) with 10% fetal bovine serum (FBS) and 1% penicillin-streptomycin. Cells for tumor inoculation were harvested upon reaching at least 80% confluence and were prepared in FBS-free DMEM. Athymic/nude rats were injected intracranially with 2-5×10^6 tumor cells either from the U251 (n=6) or the U87 (n=8) cell line (5-μL aliquot) while placed in a stereotactic holder on a heating pad. Fischer 344 rats were injected with 1.25×10^3 RG2 cells (n=8). During the procedure, animals were anesthetized via isoflurane (Isothesia) inhalation (3-4%), purchased from Covetrus (Portland, ME, USA). Dissection was performed to the cranium, and a hole was drilled into the skull to allow for stereotactic needle insertion. Injections were performed using a 10-μL Hamilton syringe with a 26G needle into the right striatum for majority of the experiments, 3 mm to the right of the bregma and 3 mm below the dura. The cells were injected steadily at 1 μL/min over 5 min and the needle was left in place for an additional 5 min post-injection. The syringe was then gradually removed to preclude any backflow of cells. The hole in the skull was sealed with bone wax, and the incision site was sutured after removal of the syringe. Animals were given bupivacaine (2 mg/kg at incision site) and carprofen (5 mg/kg, subcutaneously) during the tumor inoculation to relieve pain. Carprofen was subsequently given once per day for two days post-inoculation.
Rats were weighed daily and kept on a standard diet of rat chow and water. Tumor growth was monitored every 3-4 days using ^1H-MRI under isoflurane anesthesia. When the tumor had reached a minimum mean diameter of 3 mm at 20-24 days post-injection, each animal was imaged using ^1H-MRI and ^23Na-MRSI. […]

[3] = intravenous ~1 μmol/g, all tumors
[4] = rats bearing RG2 and U87 tumors, tumor voxels

O=P([O-])([O-])CN1CCN(CP(=O)([O-])[O-])CCN(CP(=O)([O-])[O-])CCN(CP(=O)([O-])[O-])CC1.[Na+].[Na+].[Na+].[Na+].[Na+].[Tm+3] [TmDOTP^5−, sodium thulium (III) 1,4,7,10-tetraazacyclododecane-1,4,7,10-tetrakis(methylenephosphonate)]
broadening potential (sensitivity of linewidth to agent concentration), words [1]: high broadening potentials
shiftability (sensitivity of ^23Na chemical shift to agent concentration), words [1]: high shiftability
observed ^23Na linewidths in vivo ([2]; after TmDOTP^5−): ~0.4 ppm
^23Na blood peak shift, in vitro analysis of blood samples ([2]; blood samples from the U251 tumor-bearing rat): around 2 ppm
TmDOTP^5− concentration in the tumor vasculature ([2]; from range of shifts observed and shiftability 2.77 ppm/mM): no more than 0.7 mM
separation of blood and interstitial ^23Na peaks ([2]; intravenous ~1 μmol/g): ~1.5 ppm
^23Na shift in blood [2, 3]: ~2 ppm
^23Na shifts in tumor tissue [2, 3]: 0.5-1 ppm
^23Na shift of blood sodium (Na^+b) peak ([2]; rat bearing U251 tumor, after TmDOTP^5− delivery): around 2 ppm
^23Na shift of intracellular sodium (Na^+i) peak ([2]; rat bearing U251 tumor, ~1 μmol/g BW): 0 ppm
Na^+e shift in the tumor ([2]; rats bearing RG2 and U87 tumors): 0.5-1 ppm
Na^+b shift [2, 4]: around 2 ppm
Na^+i shift [2, 4]: 0 ppm
